Data as given in patent US20240246970A1, “SUBSTITUTED HETERO-BICYCLOCOMPOUNDS AS SUBTYPE SELECTIVE NICOTINIC ACETYLCHOLINE RECEPTOR INHIBITORS” (THE BOARD OF TRUSTEES OF THE UNIVERSITY OF ILLINOIS, priority 2021, published 2024).
Read-outs that look alike come from different tables or passages of the source.

Molecular target: T1, rat α3β4 nAChR (Rattus norvegicus, UniProt P04757+P12392)
T1 construct: expressed in transfected cells; host or cells: HEK293 (rα3β4-HEK293, kept under G-416 selection)
T1 sequence (P04757 26-499): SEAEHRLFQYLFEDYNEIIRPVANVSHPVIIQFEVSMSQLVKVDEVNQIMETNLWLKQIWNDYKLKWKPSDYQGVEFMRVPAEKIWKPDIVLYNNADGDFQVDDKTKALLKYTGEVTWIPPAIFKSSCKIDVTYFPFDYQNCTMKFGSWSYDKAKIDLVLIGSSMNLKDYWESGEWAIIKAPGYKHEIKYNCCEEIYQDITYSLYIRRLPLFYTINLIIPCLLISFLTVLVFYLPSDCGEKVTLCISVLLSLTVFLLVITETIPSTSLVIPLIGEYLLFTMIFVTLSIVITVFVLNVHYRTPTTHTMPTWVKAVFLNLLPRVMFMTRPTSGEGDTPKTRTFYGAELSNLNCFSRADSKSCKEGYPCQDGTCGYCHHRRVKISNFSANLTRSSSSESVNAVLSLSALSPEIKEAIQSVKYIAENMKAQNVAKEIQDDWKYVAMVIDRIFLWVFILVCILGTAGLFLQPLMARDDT
T1 sequence (P12392 21-495): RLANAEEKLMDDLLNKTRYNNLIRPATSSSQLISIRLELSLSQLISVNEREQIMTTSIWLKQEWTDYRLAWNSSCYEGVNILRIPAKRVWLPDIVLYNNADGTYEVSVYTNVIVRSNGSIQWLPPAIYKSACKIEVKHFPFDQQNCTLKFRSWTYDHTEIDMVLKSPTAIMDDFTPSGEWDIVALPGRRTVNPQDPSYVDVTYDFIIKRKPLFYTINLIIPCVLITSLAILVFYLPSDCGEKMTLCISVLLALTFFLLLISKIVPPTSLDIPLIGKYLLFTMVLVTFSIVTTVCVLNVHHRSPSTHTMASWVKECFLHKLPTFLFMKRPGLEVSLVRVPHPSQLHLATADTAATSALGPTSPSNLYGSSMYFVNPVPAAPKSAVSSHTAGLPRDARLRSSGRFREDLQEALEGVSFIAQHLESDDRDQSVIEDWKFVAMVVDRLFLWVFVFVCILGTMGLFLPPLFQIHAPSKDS
Assay: Calcium influx assay (dual agonist/antagonist, FLIPR calcium 6) in HEK293 cells expressing rat α3β4 nAChR
Format: cell-based
Protocol: FIGS. 2A-2B show dual agonist/antagonist fluorescence assays. […] For agonist assays, 12 concentrations of test compounds were added to the cells ([…], final concentrations).
FIGS. 3A-3B show concentration response curves. […] Each concentration-response point represents a minimum of two technical replicates and three biological replicates. EC50, Emax, and IC50 values were calculated from corresponding concentration-response curves fitted using the logistical curve in OriginPro.
Assay Description. HEK293 cells expressing the rat α3β4 nAChR were loaded with an intracellular, calcium-sensitive dye. Activation of the receptor results in an increase in the intracellular calcium concentration and a corresponding increase in fluorescent signal. Multiple concentrations of test compounds were first applied to the rα3β4-HEK293 cells and monitored for their ability to activate α3β4 nAChRs.
Cell culture. […] For fluorescence assays, the cells were seeded into 96-well flat bottom, black wall plates, at a density of approximately 50,000 cells per well in 75 μL of media.
Cells seeded at this density grew into a confluent monolayer in 24 h. Ca^2+ fluorescence assays. Ca^2+ uptake was determined using a FLIPR calcium 6 assay.
For dye loading, the fluorescent dye was reconstituted in 10 mL assay buffer according to the manufacturer's protocol. 75 μL of the dye solution was added to each well and the plate was incubated at 37° C. for 1 h. Plates were then transferred to a FlexStation 3 maintained at 37° C.
Dual Agonist/AntagonistAssay. […] For agonist assays, 12 concentrations of test compounds were added to the cells ([…], final concentrations).
Once again, the fluorescence measured for 28 seconds prior to addition and 90 seconds afterwards.
Data reduction. […] Each concentration-response point represents a minimum of two technical replicates and three biological replicates. EC50, Emax, and IC50 values were calculated from corresponding concentration-response curves (see FIGS. 3A-3B) fitted using the logistical curve in OriginPro.

[1] = Example 5, α3β4 nAChR, read-out: IC50

SMILES	IC50 [1] [µM]	also measured
CC1=CCC2CC1C(c1ccnc3ccccc13)N(C)C2(C)C (stereo not shown)	1.4	
CCN1C(c2ccc(F)c(C(F)(F)F)c2)C2CC(CC=C2C)C1(C)C (stereo not shown)	0.76	
CC1=CCC2CC1C(c1ccc(F)c(C(F)(F)F)c1)OC2(C)C (stereo not shown) [drawing 51]		IC50 (IC50, Example 5 text, α3β4 nAChR): > 100 µM
CC1=CCC2CC1C(c1ccc(F)c(C(F)(F)F)c1)OC2(C)C (stereo not shown) [drawing 115]		IC50 (α3β4 nAChR IC50, Table 4, R1 and R2 methyl, R3 NH unless otherwise indicated): > 200 µM
